The numbers were not newly measured in US4375464A, “Antibiotic AY24,668 and process of preparation” (Ayerst, McKenna & Harrison Inc., priority 1981, dated 1983), which cites them from elsewhere.

For data set [1], the system named is Candida albicans.
Data set [2] has as its system Candida albicans. This is another data set of the same source.
For data set [3] the following is noted: R. R. Martel et al., Can. J. Physiol., 55, 48 (1977).

With `CO[C@H]1C[C@@H]2CC[C@@H](C)[C@@](O)(O2)C(=O)C(=O)N2CCCC[C@H]2C(=O)O[C@H]([C@H](C)C[C@@H]2CC[C@@H](O)[C@H](OC)C2)CC(=O)[C@H](C)/C=C(\C)[C@@H](O)[C@@H](OC)C(=O)[C@H](C)C[C@H](C)/C=C/C=C/C=C/1C` [rapamycin], the “effectiveness against Candida albicans in vivo” value in the data set on Candida albicans [1] is reported as “particularly effective”. Further, in the data set on Candida albicans [2], the “effectiveness against Candida albicans in vitro” value is given as “particularly effective”. Further, in data set [3], the immunosuppressant activity result is “immunosuppressant activity”.
